Measurements taken from ChEMBL document CHEMBL1152321, “Recent advances in the chemistry and biology of new generation taxoids” (J Nat Prod, 2009).

Key:
[1] = Resistance factor, ratio of IC50 for human LCC-6 cells expressing P-glycoprotein to IC50 for P-glycoprotein deficient wild type human LCC-6 cells; format: functional; design: reference not given here
[2] = Cytotoxicity against P-glycoprotein deficient wild type human LCC-6 cells after 72 hrs; format: functional, cell-based; conditions: LCC-6, 72 h
MCF7 [3] = assay: Cytotoxicity against P-glycoprotein deficient wild type human MCF7 cells after 72 hrs; format: functional, cell-based; conditions: MCF7, 72 h
MCF7 [4] = assay: Resistance factor, ratio of IC50 for human MCF7 cells expressing P-glycoprotein to IC50 for P-glycoprotein deficient wild type human MCF7 cells; format: functional
MCF7 [5] = assay: Cytotoxicity against human MCF7 cells expressing P-glycoprotein after 72 hrs; format: functional, cell-based; conditions: MCF7, 72 h
HT-29 = assay: Cytotoxicity against human HT-29 cells after 72 hrs; format: functional, cell-based; conditions: HT-29, 72 h

Row | Compound | Ratio [1] | IC50 [2] | other results
1 | CC(=O)O[C@@]12CO[C@@H]1C[C@H](O)[C@@]1(C)C(=O)[C@H](OC(=O)c3cccc4ccccc34)C3=C(C)[C@@H](OC(=O)[C@H](O)[C@H](C=C(C)C)NC(=O)OC(C)(C)C)C[C@@](O)([C@@H](OC(=O)c4ccccc4)[C@H]21)C3(C)C | 2.9 | 5.3 nM | 
2 | CCC(=O)O[C@H]1C(=O)[C@@]2(C)[C@H]([C@H](OC(=O)c3cccc(N=[N+]=[N-])c3)[C@]3(O)C[C@H](OC(=O)[C@H](O)[C@H](CC(C)C)NC(=O)OC(C)(C)C)C(C)=C1C3(C)C)[C@]1(OC(C)=O)CO[C@@H]1C[C@@H]2O |  | 1.1 nM | 
3 | CCC(=O)O[C@H]1C(=O)[C@@]2(C)[C@H]([C@H](OC(=O)c3cccc(Cl)c3)[C@]3(O)C[C@H](OC(=O)[C@H](O)[C@H](C=C(C)C)NC(=O)OC(C)(C)C)C(C)=C1C3(C)C)[C@]1(OC(C)=O)CO[C@@H]1C[C@@H]2O |  | 0.8 nM | 
4 | COc1cccc(C(=O)O[C@H]2[C@@H]3[C@]4(OC(C)=O)CO[C@@H]4C[C@H](O)[C@@]3(C)C(=O)[C@H](OC(C)=O)C3=C(C)[C@@H](OC(=O)[C@H](O)[C@H](C=C(C)C)NC(=O)OC(C)(C)C)C[C@]2(O)C3(C)C)c1 |  | 0.6 nM | 
5 | CC(=O)O[C@H]1C(=O)[C@@]2(C)[C@H]([C@H](OC(=O)c3cccc(C)c3)[C@]3(O)C[C@H](OC(=O)[C@H](O)[C@H](C=C(C)C)NC(=O)OC(C)(C)C)C(C)=C1C3(C)C)[C@]1(OC(C)=O)CO[C@@H]1C[C@@H]2O |  | 1.5 nM | 
6 | CC(=O)O[C@@]12CO[C@@H]1C[C@H](O)[C@@]1(C)C(=O)[C@H](OC(=O)c3ccccc3)C3=C(C)[C@@H](OC(=O)[C@H](O)[C@H](C=C(C)C)NC(=O)OC(C)(C)C)C[C@@](O)([C@@H](OC(=O)c4ccccc4)[C@H]21)C3(C)C | 2.7 | 1.8 nM | 
7 | COc1ccc(CCC(=O)O[C@H]2C(=O)[C@@]3(C)[C@H]([C@H](OC(=O)c4ccccc4)[C@]4(O)C[C@H](OC(=O)[C@H](O)[C@H](C=C(C)C)NC(=O)OC(C)(C)C)C(C)=C2C4(C)C)[C@]2(OC(C)=O)CO[C@@H]2C[C@@H]3O)cc1 | 2.9 | 1.7 nM | 
8 | COc1cccc(CC(=O)O[C@H]2C(=O)[C@@]3(C)[C@H]([C@H](OC(=O)c4ccccc4)[C@]4(O)C[C@H](OC(=O)[C@H](O)[C@H](C=C(C)C)NC(=O)OC(C)(C)C)C(C)=C2C4(C)C)[C@]2(OC(C)=O)CO[C@@H]2C[C@@H]3O)c1 | 9.7 | 2.1 nM | 
9 | CCC(=O)O[C@H]1C(=O)[C@@]2(C)[C@H]([C@H](OC(=O)c3cccc(F)c3)[C@]3(O)C[C@H](OC(=O)[C@H](O)[C@H](C=C(C)C)NC(=O)OC(C)(C)C)C(C)=C1C3(C)C)[C@]1(OC(C)=O)CO[C@@H]1C[C@@H]2O |  | 0.5 nM | 
10 | COc1ccccc1CC(=O)O[C@H]1C(=O)[C@@]2(C)[C@H]([C@H](OC(=O)c3ccccc3)[C@]3(O)C[C@H](OC(=O)[C@H](O)[C@H](C=C(C)C)NC(=O)OC(C)(C)C)C(C)=C1C3(C)C)[C@]1(OC(C)=O)CO[C@@H]1C[C@@H]2O | 6 | 2.3 nM | 
11 | COc1cccc(C(=O)O[C@H]2[C@@H]3[C@]4(OC(C)=O)CO[C@@H]4C[C@H](O)[C@@]3(C)C(=O)[C@H](OC(=O)C3CC3)C3=C(C)[C@@H](OC(=O)[C@H](O)[C@H](C=C(C)C)NC(=O)OC(C)(C)C)C[C@]2(O)C3(C)C)c1 | 2.9 | 1 nM | 
12 | CC(=O)O[C@@]12CO[C@@H]1C[C@H](O)[C@@]1(C)C(=O)[C@H](OC(=O)CCc3ccccc3)C3=C(C)[C@@H](OC(=O)[C@H](O)[C@H](C=C(C)C)NC(=O)OC(C)(C)C)C[C@@](O)([C@@H](OC(=O)c4ccccc4)[C@H]21)C3(C)C | 6.1 | 5.1 nM | 
13 | COc1cccc(C(=O)O[C@H]2C(=O)[C@@]3(C)[C@H]([C@H](OC(=O)c4ccccc4)[C@]4(O)C[C@H](OC(=O)[C@H](O)[C@H](C=C(C)C)NC(=O)OC(C)(C)C)C(C)=C2C4(C)C)[C@]2(OC(C)=O)CO[C@@H]2C[C@@H]3O)c1 | 1.8 | 2.8 nM | 
14 | COc1ccccc1C(=O)O[C@H]1C(=O)[C@@]2(C)[C@H]([C@H](OC(=O)c3ccccc3)[C@]3(O)C[C@H](OC(=O)[C@H](O)[C@H](C=C(C)C)NC(=O)OC(C)(C)C)C(C)=C1C3(C)C)[C@]1(OC(C)=O)CO[C@@H]1C[C@@H]2O | 2.7 | 2.1 nM | 
15 | C/C=C/[C@H](NC(=O)OC(C)(C)C)[C@@H](O)C(=O)O[C@H]1C[C@@]2(O)[C@@H](OC(=O)c3cccc(OC)c3)[C@@H]3[C@]4(OC(C)=O)CO[C@@H]4C[C@H](O)[C@@]3(C)C(=O)[C@H](OC(=O)CC)C(=C1C)C2(C)C |  | 1.2 nM | 
16 | CC(=O)O[C@@]12CO[C@@H]1C[C@H](O)[C@@]1(C)C(=O)[C@H](OC(=O)C3CC3)C3=C(C)[C@@H](OC(=O)[C@H](O)[C@H](C=C(F)F)NC(=O)OC(C)(C)C)C[C@@](O)([C@@H](OC(=O)c4cccc(N=[N+]=[N-])c4)[C@H]21)C3(C)C |  |  | IC50 (MCF7 [3]): 0.092 nM; Ratio (MCF7 [4]): 4.9; IC50 (MCF7 [5]): 0.45 nM

Row | Compound | Ratio [1] | IC50 [2] | other results
17 | CC(=O)O[C@@]12CO[C@@H]1C[C@H](O)[C@@]1(C)C(=O)[C@H](OC(=O)c3ccc4ccccc4c3)C3=C(C)[C@@H](OC(=O)[C@H](O)[C@H](C=C(C)C)NC(=O)OC(C)(C)C)C[C@@](O)([C@@H](OC(=O)c4ccccc4)[C@H]21)C3(C)C | 2.4 | 6.3 nM | 
18 | COC(=O)O[C@H]1C(=O)[C@@]2(C)[C@H]([C@H](OC(=O)c3cccc(OC)c3)[C@]3(O)C[C@H](OC(=O)[C@H](O)[C@H](C=C(F)F)NC(=O)OC(C)(C)C)C(C)=C1C3(C)C)[C@]1(OC(C)=O)CO[C@@H]1C[C@@H]2O |  |  | IC50 (MCF7 [3]): 0.078 nM; Ratio (MCF7 [4]): 6.4; IC50 (MCF7 [5]): 0.5 nM
19 | CCC(=O)O[C@H]1C(=O)[C@@]2(C)[C@H]([C@H](OC(=O)c3cccc(OC)c3)[C@]3(O)C[C@H](OC(=O)[C@H](O)[C@@H](NC(=O)OC(C)(C)C)[C@H]4CC4(C)C)C(C)=C1C3(C)C)[C@]1(OC(C)=O)CO[C@@H]1C[C@@H]2O |  | 0.48 nM | 
20 | COc1cccc(CCC(=O)O[C@H]2C(=O)[C@@]3(C)[C@H]([C@H](OC(=O)c4ccccc4)[C@]4(O)C[C@H](OC(=O)[C@H](O)[C@H](C=C(C)C)NC(=O)OC(C)(C)C)C(C)=C2C4(C)C)[C@]2(OC(C)=O)CO[C@@H]2C[C@@H]3O)c1 | 1.8 | 3.7 nM | 
21 | CCC(=O)O[C@H]1C(=O)[C@@]2(C)[C@H]([C@H](OC(=O)c3cccc(OC)c3)[C@]3(O)C[C@H](OC(=O)[C@H](O)[C@H](C=C(F)F)NC(=O)OC(C)(C)C)C(C)=C1C3(C)C)[C@]1(OC(C)=O)CO[C@@H]1C[C@@H]2O |  |  | IC50 (MCF7 [3]): 0.34 nM; Ratio (MCF7 [4]): 1.7; IC50 (MCF7 [5]): 0.57 nM
22 | COc1ccc(C(=O)O[C@H]2C(=O)[C@@]3(C)[C@H]([C@H](OC(=O)c4ccccc4)[C@]4(O)C[C@H](OC(=O)[C@H](O)[C@H](C=C(C)C)NC(=O)OC(C)(C)C)C(C)=C2C4(C)C)[C@]2(OC(C)=O)CO[C@@H]2C[C@@H]3O)cc1 | 1.2 | 3.8 nM | 
23 | CCC(=O)O[C@H]1C(=O)[C@@]2(C)[C@H]([C@H](OC(=O)c3cccc(N=[N+]=[N-])c3)[C@]3(O)C[C@H](OC(=O)[C@H](O)[C@H](C=C(C)C)NC(=O)OC(C)(C)C)C(C)=C1C3(C)C)[C@]1(OC(C)=O)CO[C@@H]1C[C@@H]2O |  | 0.9 nM | 
24 | C=Cc1cccc(C(=O)O[C@H]2[C@@H]3[C@]4(OC(C)=O)CO[C@@H]4C[C@H](O)[C@@]3(C)C(=O)[C@H](OC(=O)CC)C3=C(C)[C@@H](OC(=O)[C@H](O)[C@H](C=C(C)C)NC(=O)OC(C)(C)C)C[C@]2(O)C3(C)C)c1 |  | 2.9 nM | 
25 | COC(=O)O[C@H]1C(=O)[C@@]2(C)[C@H]([C@H](OC(=O)c3cccc(N=[N+]=[N-])c3)[C@]3(O)C[C@H](OC(=O)[C@H](O)[C@H](C=C(F)F)NC(=O)OC(C)(C)C)C(C)=C1C3(C)C)[C@]1(OC(C)=O)CO[C@@H]1C[C@@H]2O |  |  | IC50 (MCF7 [3]): 0.078 nM; Ratio (MCF7 [4]): 5.3; IC50 (MCF7 [5]): 0.4 nM
26 | CCC(=O)O[C@H]1C(=O)[C@@]2(C)[C@H]([C@H](OC(=O)c3cccc(F)c3)[C@]3(O)C[C@H](OC(=O)[C@H](O)[C@H](CC(C)C)NC(=O)OC(C)(C)C)C(C)=C1C3(C)C)[C@]1(OC(C)=O)CO[C@@H]1C[C@@H]2O | 6 | 0.4 nM | 
27 | COc1cccc(C(=O)O[C@H]2[C@@H]3[C@]4(OC(C)=O)CO[C@@H]4C[C@H](O)[C@@]3(C)C(=O)[C@H](OC(=O)C3CC3)C3=C(C)[C@@H](OC(=O)[C@H](O)[C@H](C=C(F)F)NC(=O)OC(C)(C)C)C[C@]2(O)C3(C)C)c1 |  |  | IC50 (MCF7 [3]): 0.092 nM; Ratio (MCF7 [4]): 5.2; IC50 (MCF7 [5]): 0.48 nM
28 | CC(=O)O[C@H]1C(=O)[C@@]2(C)[C@H]([C@H](OC(=O)c3cccc(N=[N+]=[N-])c3)[C@]3(O)C[C@H](OC(=O)[C@H](O)[C@H](C=C(F)F)NC(=O)OC(C)(C)C)C(C)=C1C3(C)C)[C@]1(OC(C)=O)CO[C@@H]1C[C@@H]2O |  |  | IC50 (MCF7 [3]): 0.092 nM; Ratio (MCF7 [4]): 3.7; IC50 (MCF7 [5]): 0.34 nM
29 | CC(=O)O[C@@]12CO[C@@H]1C[C@H](O)[C@@]1(C)C(=O)[C@H](OC(=O)OCc3ccccc3)C3=C(C)[C@@H](OC(=O)[C@H](O)[C@H](C=C(C)C)NC(=O)OC(C)(C)C)C[C@@](O)([C@@H](OC(=O)c4ccccc4)[C@H]21)C3(C)C | 9.3 | 1.8 nM | 
30 | COc1ccccc1CCC(=O)O[C@H]1C(=O)[C@@]2(C)[C@H]([C@H](OC(=O)c3ccccc3)[C@]3(O)C[C@H](OC(=O)[C@H](O)[C@H](C=C(C)C)NC(=O)OC(C)(C)C)C(C)=C1C3(C)C)[C@]1(OC(C)=O)CO[C@@H]1C[C@@H]2O | 3.3 | 1.5 nM | 
31 | CC(=O)O[C@@]12CO[C@@H]1C[C@H](O)[C@@]1(C)C(=O)[C@H](O)C3=C(C)[C@@H](OC(=O)[C@H](O)[C@@H](NC(=O)OC(C)(C)C)c4ccccc4)C[C@@](O)([C@@H](OC(=O)c4ccccc4)[C@H]21)C3(C)C.O.O.O [DOCETAXEL] |  | 1 nM | IC50 (HT-29): 1 nM; IC50 (MCF7 [5]): 215 nM
